According to the NIST ThermoML archive (doi:10.1016/j.jct.2016.11.007):
Numbers after ± are expanded uncertainties.

Assay: mn = molality of the nth substance listed, in mol/kg
Conditions: Liquid, Alternating current cell with electrodes

OB(O)O [boric acid] + O
Conditions	electrical conductivity [S/m]
298.15 K, 19767 kPa, m1 = 0.000461	2.9e-05 ± 2.2e-05
298.15 K, 19767 kPa, m1 = 0.001034	4.34e-05 ± 2.2e-05
298.15 K, 19767 kPa, m1 = 0.002214	7.29e-05 ± 2.2e-05
298.15 K, 19767 kPa, m1 = 0.003558	8.46e-05 ± 2.3e-05
298.15 K, 19767 kPa, m1 = 0.006801	0.000104 ± 2.3e-05
298.15 K, 19767 kPa, m1 = 0.01448	0.000141 ± 1.5e-05
298.15 K, 19767 kPa, m1 = 0.03227	0.000203 ± 2.9e-05
298.15 K, 19767 kPa, m1 = 0.05626	0.000261 ± 5e-05
298.15 K, 19767 kPa, m1 = 0.1313	0.000513 ± 3.1e-05
373.33 K, 19683 kPa, m1 = 0.002216	0.000155 ± 9.3e-06
373.33 K, 19683 kPa, m1 = 0.01449	0.000175 ± 3.5e-05
373.33 K, 19683 kPa, m1 = 0.02381	0.000262 ± 1.6e-05
373.33 K, 19683 kPa, m1 = 0.04334	0.000409 ± 2.5e-05
373.33 K, 19683 kPa, m1 = 0.07421	0.000597 ± 3.6e-05
448.23 K, 19666 kPa, m1 = 0.0004623	0.000302 ± 1.8e-05
448.23 K, 19666 kPa, m1 = 0.00294	0.000347 ± 2.1e-05
448.23 K, 19666 kPa, m1 = 0.00873	0.000421 ± 2.5e-05
448.23 K, 19666 kPa, m1 = 0.01287	0.000473 ± 2.9e-05
448.23 K, 19666 kPa, m1 = 0.0243	0.00059 ± 3.6e-05
448.23 K, 19666 kPa, m1 = 0.03791	0.000706 ± 4.2e-05
448.23 K, 19666 kPa, m1 = 0.07013	0.000939 ± 5.7e-05
448.23 K, 19666 kPa, m1 = 0.1015	0.00114 ± 6.8e-05
523.32 K, 19674 kPa, m1 = 0.0005523	0.000382 ± 2.3e-05
523.32 K, 19674 kPa, m1 = 0.001757	0.000393 ± 2.4e-05
523.32 K, 19674 kPa, m1 = 0.004534	0.000408 ± 2.4e-05
523.32 K, 19674 kPa, m1 = 0.009517	0.000445 ± 2.7e-05
523.32 K, 19674 kPa, m1 = 0.02168	0.000515 ± 3.1e-05
523.32 K, 19674 kPa, m1 = 0.04237	0.000632 ± 3.8e-05
523.32 K, 19674 kPa, m1 = 0.07216	0.00078 ± 4.7e-05
523.32 K, 19674 kPa, m1 = 0.1017	0.000922 ± 5.5e-05
547.2 K, 20900 kPa, m1 = 0.0009361	0.000382 ± 2.3e-05
547.2 K, 20900 kPa, m1 = 0.002371	0.000395 ± 2.4e-05
547.2 K, 20900 kPa, m1 = 0.003744	0.000405 ± 2.5e-05
547.2 K, 20900 kPa, m1 = 0.00586	0.000419 ± 2.6e-05
547.2 K, 20900 kPa, m1 = 0.008845	0.000439 ± 5.1e-05
547.2 K, 20900 kPa, m1 = 0.01163	0.000459 ± 5.2e-05
547.2 K, 20900 kPa, m1 = 0.01515	0.000481 ± 5.1e-05
547.2 K, 20900 kPa, m1 = 0.02429	0.000535 ± 3.2e-05
548.35 K, 19600 kPa, m1 = 0.0008359	0.000374 ± 2.5e-05
548.35 K, 19600 kPa, m1 = 0.002368	0.000385 ± 2.5e-05
548.35 K, 19600 kPa, m1 = 0.005537	0.000406 ± 2.7e-05
548.35 K, 19600 kPa, m1 = 0.01208	0.000447 ± 2.7e-05
548.35 K, 19600 kPa, m1 = 0.02063	0.000495 ± 3e-05
548.35 K, 19600 kPa, m1 = 0.0288	0.000538 ± 3.2e-05
548.35 K, 19600 kPa, m1 = 0.04625	0.000617 ± 3.7e-05
548.35 K, 19600 kPa, m1 = 0.1015	0.000921 ± 5.5e-05
571.07 K, 19463 kPa, m1 = 0.000429	0.000323 ± 2.2e-05
571.07 K, 19463 kPa, m1 = 0.001139	0.000331 ± 2.2e-05
571.07 K, 19463 kPa, m1 = 0.004203	0.00035 ± 2.3e-05
572.82 K, 20769 kPa, m1 = 0.0002704	0.000339 ± 2.1e-05
572.82 K, 20769 kPa, m1 = 0.0005746	0.000349 ± 2.1e-05
572.82 K, 20769 kPa, m1 = 0.001483	0.000358 ± 2.2e-05
572.82 K, 20769 kPa, m1 = 0.00287	0.000369 ± 2.2e-05
572.82 K, 20769 kPa, m1 = 0.006337	0.000389 ± 2.3e-05
572.82 K, 20769 kPa, m1 = 0.01032	0.000414 ± 2.5e-05
572.82 K, 20769 kPa, m1 = 0.01719	0.000445 ± 2.7e-05
572.82 K, 20769 kPa, m1 = 0.0361	0.000516 ± 3.1e-05
572.82 K, 20769 kPa, m1 = 0.05276	0.000569 ± 3.4e-05
597.9 K, 20618 kPa, m1 = 0.0004999	0.000217 ± 2.6e-05
597.9 K, 20618 kPa, m1 = 0.0008991	0.000223 ± 2.7e-05
597.9 K, 20618 kPa, m1 = 0.001756	0.000227 ± 2.7e-05
597.9 K, 20618 kPa, m1 = 0.003156	0.000233 ± 2.8e-05
597.9 K, 20618 kPa, m1 = 0.00593	0.000242 ± 2.9e-05
597.9 K, 20618 kPa, m1 = 0.01032	0.000257 ± 3.1e-05
597.9 K, 20618 kPa, m1 = 0.02561	0.000303 ± 3.6e-05
621.13 K, 20620 kPa, m1 = 0.0003582	0.000117 ± 1.4e-05
621.13 K, 20620 kPa, m1 = 0.0009385	0.000117 ± 1.4e-05
621.13 K, 20620 kPa, m1 = 0.002851	0.00012 ± 1.4e-05
621.13 K, 20620 kPa, m1 = 0.00498	0.000125 ± 1.5e-05
621.13 K, 20620 kPa, m1 = 0.01107	0.000138 ± 1.7e-05
621.13 K, 20620 kPa, m1 = 0.01908	0.000161 ± 1.9e-05
